Legend:
[1] = tested on: morningglory; assay: Test B pre/postemergence morningglory; format: in vivo, Ipomoea hederacea
Summary of the method: (§1)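 Response is a visual 0-to-10 score relative to untreated plants, where 0 means no effect and 10 means complete control, taken twelve to sixteen days after application. Treatments went onto soil at planting and onto foliage of 1- to 4-leaf plants, using a surfactant-containing non-phytotoxic solvent.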

[2] = tested on: blackgrass; assay: Test B pre/postemergence blackgrass; format: in vivo, Alopecurus myosuroides
Summary of the method: as §1

[3] = tested on: soybean; assay: Test B pre/postemergence soybean; format: in vivo, Glycine max
Summary of the method: as §1

[4] = tested on: giant foxtail; assay: Test B pre/postemergence giant foxtail; format: in vivo, Setaria faberii
Summary of the method: as §1

[5] = tested on: velvetleaf; assay: Test B pre/postemergence velvetleaf; format: in vivo, Abutilon theophrasti
Summary of the method: as §1

[6] = tested on: corn; assay: Test B pre/postemergence corn; format: in vivo, Zea mays
Summary of the method: as §1

[7] = tested on: cocklebur; assay: Test B pre/postemergence cocklebur; format: in vivo, Xanthium strumarium
Summary of the method: as §1

[8] = tested on: rice; assay: Test B flood test rice; format: in vivo, Oryza sativa
Summary of the method: (§2)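 Flood test on plants grown to the 2-leaf stage; treated plants kept in greenhouse twelve to sixteen days, then visually rated against controls on a 0 (no effect) to 10 (complete control) scale.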

[9] = tested on: surinam grass; assay: Test B pre/postemergence surinam grass; format: in vivo, Brachiaria decumbens
Summary of the method: as §1

[10] = tested on: smallflower flatsedge; assay: Test B flood test smallflower flatsedge; format: in vivo, Cyperus difformis
Summary of the method: as §2

[11] = tested on: crabgrass; assay: Test B pre/postemergence crabgrass; format: in vivo, Digitaria sanguinalis
Summary of the method: as §1

[12] = tested on: pigweed; assay: Test B pre/postemergence pigweed; format: in vivo, Amaranthus retroflexus
Summary of the method: as §1

[13] = tested on: bamyardgrass; assay: Test B flood test barnyardgrass; format: in vivo, Echinochloa crus-galli
Summary of the method: as §2

[14] = tested on: wheat; assay: Test B pre/postemergence wheat; format: in vivo, Triticum aestivum
Summary of the method: as §1

[15] = tested on: bedstraw; assay: Test B pre/postemergence bedstraw; format: in vivo, Galium aparine
Summary of the method: as §1

[16] = tested on: wild oat; assay: Test B pre/postemergence wild oat; format: in vivo, Avena fatua
Summary of the method: as §1

[17] = Preemergence, Rate 62 g/ha, scale of 0 to 10 where 0 is no effect and 10 is complete control
[18] = Preemergence, Rate 250 g/ha, scale of 0 to 10 where 0 is no effect and 10 is complete control
[19] = Preemergence, Rate 500 g/ha, scale of 0 to 10 where 0 is no effect and 10 is complete control
[20] = Rate 62 g/ha, Postemergence, scale of 0 to 10 where 0 is no effect and 10 is complete control
[21] = Rate 125 g/ha, Postemergence, scale 0 to 10
[22] = Rate 125 g/ha, Preemergence, scale of 0 to 10 where 0 is no effect and 10 is complete control
[23] = Rate 500 g/ha, Postemergence, scale 0 to 10
[24] = Rate 62 g/ha, headed Pre-emergence (flood test species), scale 0 to 10 (0 no effect, 10 complete control)
[25] = Rate 125 g/ha, Pre-emergence, flood test species, scale 0 to 10 where 0 is no effect and 10 is complete control
[26] = Rate 250 g/ha, Pre-emergence, flood-test species, scale 0 to 10, 0 is no effect, 10 is complete control
[27] = Rate 500 g/ha, Pre-emergence, flood test species, scale 0 to 10 (0 no effect, 10 complete control)

C#CCn1c(=O)on(C(=O)N(c2ccc(F)cc2)C(C)C)c1=O [Compound 212]
Morningglory plant response rating [1, 17]: 0 | Morningglory plant response rating [1, 18]: 0 | Plant response rating, Morningglory [1, 19]: 0 | Morningglory plant response rating [1, 20]: 2 | Morningglory plant response rating [1, 21]: 3 | Morningglory plant response rating [1, 22]: 0 | Plant response rating (0 to 10; 0 is no effect, 10 is complete control), Morningglory ([1]; Rate 250 g/ha, Postemergence): 4 | Morningglory plant response rating [1, 23]: 8 | Blackgrass plant response rating [2, 17]: 4 | Blackgrass plant response rating [2, 18]: 7 | Plant response rating, Blackgrass [2, 19]: 9 | Blackgrass plant response rating [2, 20]: 6 | Blackgrass plant response rating [2, 21]: 6 | Blackgrass plant response rating [2, 22]: 4 | Plant response rating (0 to 10; 0 is no effect, 10 is complete control), Blackgrass ([2]; Rate 250 g/ha, Postemergence): 6 | Blackgrass plant response rating [2, 23]: 7 | Soybean plant response rating [3, 17]: 0 | Soybean plant response rating [3, 18]: 0 | Plant response rating, Soybean [3, 19]: 0 | Soybean plant response rating [3, 20]: 1 | Soybean plant response rating [3, 21]: 2 | Soybean plant response rating [3, 22]: 0 | Plant response rating (0 to 10; 0 is no effect, 10 is complete control), Soybean ([3]; Rate 250 g/ha, Postemergence): 3 | Soybean plant response rating [3, 23]: 4 | Giant foxtail plant response rating [4, 17]: 2 | Giant foxtail plant response rating [4, 18]: 9 | Plant response rating, Giant foxtail [4, 19]: 10 | Giant foxtail plant response rating [4, 20]: 4 | Giant foxtail plant response rating [4, 21]: 6 | Giant foxtail plant response rating [4, 22]: 4 | Plant response rating (0 to 10; 0 is no effect, 10 is complete control), Giant foxtail ([4]; Rate 250 g/ha, Postemergence): 6 | Giant foxtail plant response rating [4, 23]: 9 | Velvetleaf plant response rating [5, 17]: 2 | Velvetleaf plant response rating [5, 18]: 5 | Plant response rating, Velvetleaf [5, 19]: 5 | Velvetleaf plant response rating [5, 20]: 3 | Velvetleaf plant response rating [5, 21]: 4 | Plant response rating (0 to 10; 0 is no effect, 10 is complete control), Velvetleaf ([5]; Rate 250 g/ha, Postemergence): 5 | Corn plant response rating [6, 17]: 0 | Corn plant response rating [6, 18]: 0 | Plant response rating, Corn [6, 19]: 0 | Corn plant response rating [6, 20]: 0 | Corn plant response rating [6, 21]: 0 | Corn plant response rating [6, 22]: 0 | Plant response rating (0 to 10; 0 is no effect, 10 is complete control), Corn ([6]; Rate 250 g/ha, Postemergence): 0 | Corn plant response rating [6, 23]: 0 | Cocklebur plant response rating [7, 17]: 0 | Cocklebur plant response rating [7, 18]: 0 | Plant response rating, Cocklebur [7, 19]: 0 | Cocklebur plant response rating [7, 20]: 2 | Cocklebur plant response rating [7, 21]: 2 | Plant response rating (0 to 10; 0 is no effect, 10 is complete control), Cocklebur ([7]; Rate 250 g/ha, Postemergence): 2 | Cocklebur plant response rating [7, 23]: 5 | Rice plant response rating [8, 24]: 0 | Rice plant response rating [8, 25]: 0 | Rice plant response rating [8, 26]: 0 | Rice plant response rating [8, 27]: 0 | B. signalgrass plant response rating [9, 17]: 0 | B. signalgrass plant response rating ([9]; Preemergence, Rate 250 g/ha, scale 0 to 10, 0 is no effect, 10 is complete control): 5 | Plant response rating, B. signalgrass [9, 19]: 5 | B. signalgrass plant response rating [9, 20]: 2 | B. signalgrass plant response rating ([9]; Rate 125 g/ha, Postemergence, scale 0 (no effect) to 10 (complete control)): 4 | B. signalgrass plant response rating [9, 22]: 1 | Plant response rating (0 to 10; 0 is no effect, 10 is complete control), B. signalgrass ([9]; Rate 250 g/ha, Postemergence): 7 | B. signalgrass plant response rating ([9]; Rate 500 g/ha, Postemergence, scale 0 to 10, 0 no effect, 10 complete control): 7 | S. Flatsedge plant response rating [10, 24]: 0 | S. Flatsedge plant response rating [10, 25]: 0 | S. Flatsedge plant response rating [10, 26]: 0 | S. Flatsedge plant response rating [10, 27]: 0 | Crabgrass plant response rating [11, 17]: 0 | Crabgrass plant response rating [11, 18]: 5 | Plant response rating, Crabgrass [11, 19]: 5 | Crabgrass plant response rating [11, 20]: 6 | Crabgrass plant response rating [11, 21]: 6 | Crabgrass plant response rating [11, 22]: 4 | Plant response rating (0 to 10; 0 is no effect, 10 is complete control), Crabgrass ([11]; Rate 250 g/ha, Postemergence): 8 | Crabgrass plant response rating [11, 23]: 9 | Redroot pigweed plant response rating [12, 17]: 9 | Redroot pigweed plant response rating [12, 18]: 10 | Plant response rating, Redroot pigweed [12, 19]: 10 | Redroot pigweed plant response rating [12, 20]: 0 | Redroot pigweed plant response rating [12, 21]: 5 | Redroot pigweed plant response rating [12, 22]: 9 | Redroot pigweed plant response rating [12, 23]: 7 | Barnyardgrass plant response rating [13, 24]: 0 | Barnyardgrass plant response rating [13, 25]: 0 | Barnyardgrass plant response rating [13, 26]: 0 | Barnyardgrass plant response rating [13, 27]: 0 | Wheat plant response rating [14, 17]: 0 | Wheat plant response rating [14, 18]: 5 | Plant response rating, Wheat [14, 19]: 7 | Wheat plant response rating [14, 20]: 0 | Wheat plant response rating [14, 21]: 0 | Wheat plant response rating [14, 22]: 0 | Plant response rating (0 to 10; 0 is no effect, 10 is complete control), Wheat ([14]; Rate 250 g/ha, Postemergence): 0 | Bedstraw plant response rating [15, 17]: 0 | Bedstraw plant response rating [15, 18]: 0 | Plant response rating, Bedstraw [15, 19]: 10 | Bedstraw plant response rating [15, 20]: 0 | Bedstraw plant response rating [15, 21]: 0 | Bedstraw plant response rating [15, 22]: 0 | Plant response rating (0 to 10; 0 is no effect, 10 is complete control), Bedstraw ([15]; Rate 250 g/ha, Postemergence): 2 | Bedstraw plant response rating [15, 23]: 7 | Wild oats plant response rating [16, 17]: 0 | Wild oats plant response rating [16, 18]: 3 | Plant response rating, Wild oats [16, 19]: 7 | Wild oats plant response rating [16, 20]: 0 | Wild oats plant response rating [16, 21]: 0 | Plant response rating (0 to 10; 0 is no effect, 10 is complete control), Wild oats ([16]; Rate 250 g/ha, Postemergence): 0
